One series addresses T1, CYP2B6 (Homo sapiens, UniProt P20813).
T1 construct: using isoform-specific substrates incubated with human liver microsomes; tissue Eurofins protocol ITEMG232; host or cells: human liver microsomes
T1 sequence (P20813 1-491): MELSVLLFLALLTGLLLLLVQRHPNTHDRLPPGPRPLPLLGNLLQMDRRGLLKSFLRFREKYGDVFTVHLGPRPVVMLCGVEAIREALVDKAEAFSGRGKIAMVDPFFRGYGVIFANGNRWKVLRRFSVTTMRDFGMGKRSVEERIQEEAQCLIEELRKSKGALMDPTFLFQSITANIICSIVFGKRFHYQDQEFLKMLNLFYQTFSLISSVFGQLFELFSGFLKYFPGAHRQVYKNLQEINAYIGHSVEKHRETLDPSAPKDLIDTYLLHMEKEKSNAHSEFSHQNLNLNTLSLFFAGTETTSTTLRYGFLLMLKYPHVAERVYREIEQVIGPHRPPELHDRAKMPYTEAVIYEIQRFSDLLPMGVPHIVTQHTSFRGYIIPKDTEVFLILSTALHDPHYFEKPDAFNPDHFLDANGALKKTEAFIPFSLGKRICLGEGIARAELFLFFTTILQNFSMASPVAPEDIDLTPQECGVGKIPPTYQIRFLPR
Kind of series: CYP inhibition in human liver microsomes, bupropion substrate. In kind it is in vitro ADME. The following applies: probe bupropion, read-out: CYP2B6 Inh %. (In general: Microsomes from liver hold many membrane-bound enzymes, among them those of drug oxidation.)

Series [1] can be described thus: Metabolic stability in pooled human liver microsomes. In kind it is in vitro ADME. The following applies: human liver microsomes 0.5 mg/mL, 1 uM test compound, 37° C.; for T1/2, + NaDPH: with 1 mM NADPH; for half-life at 1 uM: pooled human liver microsomes, without NADPH, read-out: T1/2, no NaDPH. The protocol:
Pooled human liver microsomes in PBS at a concentration of 0.5 mg/mL was incubated with or without 1 mM NADPH for 70 min at 37° C. Test compound was added after 10 minutes to a final concentration of 1 uM. Samples were withdrawn at 0, 5, 15 and 60 minutes and added to test tubes containing acetonitrile, to stop the reaction, and with terfenadine, used as internal standard. After centrifugation at 10 000×g for 5 minutes the supernatant was diluted 1:1 with 1% formic acid. Samples were separated on a reverse phase column and detected by triple quadrupole MSMS (Agilant model 6540). The concentration of the parent compound at the different time points was measured with an external standard curve using terfenadine as internal standard and the initial metabolic rate in the presence or absence of NADPH calculated.

The next series concerns the target T2, CYP3A4 (Homo sapiens, UniProt P08684).
T2 construct: using isoform-specific substrates incubated with human liver microsomes; tissue Eurofins protocol ITEMG232; host or cells: human liver microsomes
Kind of series: CYP inhibition in human liver microsomes, midazolam substrate. The class given is in vitro ADME. The following applies: probe midazolam, read-out: CYP3A4 midazolam Inh %.

In a further series the target is T3, CYP2C19 (Homo sapiens, UniProt P33261).
T3 construct: using isoform-specific substrates incubated with human liver microsomes; tissue Eurofins protocol ITEMG232; host or cells: human liver microsomes
Kind of series: CYP inhibition in human liver microsomes, omeprazole substrate. The following applies: probe omeprazole, read-out: CYP2C19 Inh %. The class given is in vitro ADME.

For another series, the target named is T4, CYP2D6 (Homo sapiens, UniProt P10635).
T4 construct: tissue Eurofins protocol ITEMG232; host or cells: human liver microsomes
Kind of series: CYP inhibition in human liver microsomes, dextromethorphan substrate. The class given is in vitro ADME. The following applies: probe dextromethorphan, read-out: CYP2D6 Inh %.

In another series the target is T5, CYP2C9 (Homo sapiens, UniProt P11712).
T5 construct: using isoform-specific substrates incubated with human liver microsomes; tissue Eurofins protocol ITEMG232; host or cells: human liver microsomes
Kind of series: CYP inhibition in human liver microsomes, diclofenac substrate. The class given is in vitro ADME. The following applies: probe diclofenac, read-out: CYP2C9 Inh %.

In series [2] the target is T6, human recombinant AT1 receptor (Homo sapiens, UniProt P30556).
T6 construct: Eurofins protocol ITEM24
T6 sequence (P30556 1-359): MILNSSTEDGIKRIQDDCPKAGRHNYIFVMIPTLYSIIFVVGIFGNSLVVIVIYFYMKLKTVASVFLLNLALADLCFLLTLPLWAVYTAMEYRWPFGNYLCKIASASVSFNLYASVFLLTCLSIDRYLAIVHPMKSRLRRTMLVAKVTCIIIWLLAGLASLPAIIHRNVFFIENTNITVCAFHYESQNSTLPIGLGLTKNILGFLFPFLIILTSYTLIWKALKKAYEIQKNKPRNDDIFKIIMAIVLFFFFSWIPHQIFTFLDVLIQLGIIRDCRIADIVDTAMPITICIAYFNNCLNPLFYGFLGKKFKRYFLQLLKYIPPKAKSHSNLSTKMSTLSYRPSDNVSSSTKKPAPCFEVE
Kind of series: Binding to AT1 receptor, radiometric scintillation assay (Eurofins ITEM24).

Series [3] addresses T7, human recombinant AT2 receptor (Homo sapiens, UniProt P50052).
T7 sequence (P50052 1-363): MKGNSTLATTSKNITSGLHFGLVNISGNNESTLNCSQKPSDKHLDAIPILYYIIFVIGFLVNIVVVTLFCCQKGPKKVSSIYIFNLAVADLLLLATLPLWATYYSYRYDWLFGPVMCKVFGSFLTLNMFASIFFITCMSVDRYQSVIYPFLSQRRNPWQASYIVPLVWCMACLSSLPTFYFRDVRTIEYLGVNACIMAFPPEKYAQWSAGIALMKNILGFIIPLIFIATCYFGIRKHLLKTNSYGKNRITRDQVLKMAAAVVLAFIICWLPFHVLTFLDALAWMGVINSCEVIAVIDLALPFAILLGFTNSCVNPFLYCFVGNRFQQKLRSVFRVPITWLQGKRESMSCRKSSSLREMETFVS
Kind of series: biochemical. The class given is binding. As to conditions: ligand 125I CGP 42112A; for IC50: test concentrations 1, 10, 100 and 1000 nM, C21* = mean of runs, read-out: AT2 GraFit IC50.

Another series relates to CYP3A4&5. Kind of series: CYP inhibition in human liver microsomes, testosterone substrate. In kind it is in vitro ADME. As to conditions: probe testosterone, read-out: CYP3A4&5 testosterone Inh %.
For another series, the target named is T8, CYP2C8 (Homo sapiens, UniProt P10632).
T8 construct: using isoform-specific substrates incubated with human liver microsomes; tissue Eurofins protocol ITEMG232; host or cells: human liver microsomes
T8 sequence (P10632 1-490): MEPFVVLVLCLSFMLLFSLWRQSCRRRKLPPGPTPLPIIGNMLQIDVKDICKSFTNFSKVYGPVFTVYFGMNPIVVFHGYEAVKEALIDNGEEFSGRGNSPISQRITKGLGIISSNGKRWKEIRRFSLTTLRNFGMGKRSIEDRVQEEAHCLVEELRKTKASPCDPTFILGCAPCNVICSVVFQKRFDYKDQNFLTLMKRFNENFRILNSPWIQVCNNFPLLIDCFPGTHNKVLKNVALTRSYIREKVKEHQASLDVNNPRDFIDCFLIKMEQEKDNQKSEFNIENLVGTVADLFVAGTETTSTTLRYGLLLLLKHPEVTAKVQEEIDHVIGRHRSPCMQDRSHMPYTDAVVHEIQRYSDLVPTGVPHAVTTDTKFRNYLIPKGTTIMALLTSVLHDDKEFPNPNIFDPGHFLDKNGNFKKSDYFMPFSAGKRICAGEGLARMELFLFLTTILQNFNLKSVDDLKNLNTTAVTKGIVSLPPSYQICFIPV
Kind of series: CYP inhibition in human liver microsomes, paclitaxel and amodiaquine substrates. The class given is in vitro ADME. The following applies: probe paclitaxel and amodiaquine, read-out: CYP2C8 Inh %.

For another series, the target named is T9, CYP1A (Homo sapiens, UniProt P05177).
T9 construct: using isoform-specific substrates incubated with human liver microsomes; tissue Eurofins protocol ITEMG232; host or cells: human liver microsomes
Kind of series: CYP inhibition in human liver microsomes, phenacetin substrate. As to conditions: probe phenacetin, read-out: CYP1A Inh %. In kind it is in vitro ADME.

A value given as a limit tells only on which side of the number the result lay.

T9 sequence (P05177 whole entry, canonical isoform): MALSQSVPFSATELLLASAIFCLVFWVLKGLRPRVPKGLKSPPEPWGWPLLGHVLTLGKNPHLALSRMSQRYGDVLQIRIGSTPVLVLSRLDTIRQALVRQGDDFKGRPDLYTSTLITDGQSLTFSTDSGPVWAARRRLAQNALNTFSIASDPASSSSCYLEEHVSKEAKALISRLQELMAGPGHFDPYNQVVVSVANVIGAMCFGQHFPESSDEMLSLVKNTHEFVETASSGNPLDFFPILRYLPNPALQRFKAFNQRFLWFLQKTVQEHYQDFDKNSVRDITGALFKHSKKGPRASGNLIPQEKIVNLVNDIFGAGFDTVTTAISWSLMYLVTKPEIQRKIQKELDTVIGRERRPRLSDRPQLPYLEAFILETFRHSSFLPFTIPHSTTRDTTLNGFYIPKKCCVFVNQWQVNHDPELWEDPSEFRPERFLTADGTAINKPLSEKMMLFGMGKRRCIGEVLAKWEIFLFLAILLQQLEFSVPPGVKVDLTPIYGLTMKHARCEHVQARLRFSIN
T4 sequence (P10635 whole entry): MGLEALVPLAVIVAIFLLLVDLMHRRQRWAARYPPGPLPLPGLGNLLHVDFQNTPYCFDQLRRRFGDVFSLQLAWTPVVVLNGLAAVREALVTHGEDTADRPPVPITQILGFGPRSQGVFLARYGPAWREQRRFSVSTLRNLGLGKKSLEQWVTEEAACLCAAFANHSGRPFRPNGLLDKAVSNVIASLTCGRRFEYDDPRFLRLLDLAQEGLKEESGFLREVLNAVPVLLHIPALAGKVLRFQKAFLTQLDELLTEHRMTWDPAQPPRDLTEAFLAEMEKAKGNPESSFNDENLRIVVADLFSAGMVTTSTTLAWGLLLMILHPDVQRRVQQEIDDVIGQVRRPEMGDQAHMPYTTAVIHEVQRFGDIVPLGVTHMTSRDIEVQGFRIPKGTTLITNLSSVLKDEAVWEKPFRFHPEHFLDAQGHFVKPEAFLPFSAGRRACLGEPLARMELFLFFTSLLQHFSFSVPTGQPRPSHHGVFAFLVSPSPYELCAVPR
T5 sequence (P11712 whole entry, canonical isoform): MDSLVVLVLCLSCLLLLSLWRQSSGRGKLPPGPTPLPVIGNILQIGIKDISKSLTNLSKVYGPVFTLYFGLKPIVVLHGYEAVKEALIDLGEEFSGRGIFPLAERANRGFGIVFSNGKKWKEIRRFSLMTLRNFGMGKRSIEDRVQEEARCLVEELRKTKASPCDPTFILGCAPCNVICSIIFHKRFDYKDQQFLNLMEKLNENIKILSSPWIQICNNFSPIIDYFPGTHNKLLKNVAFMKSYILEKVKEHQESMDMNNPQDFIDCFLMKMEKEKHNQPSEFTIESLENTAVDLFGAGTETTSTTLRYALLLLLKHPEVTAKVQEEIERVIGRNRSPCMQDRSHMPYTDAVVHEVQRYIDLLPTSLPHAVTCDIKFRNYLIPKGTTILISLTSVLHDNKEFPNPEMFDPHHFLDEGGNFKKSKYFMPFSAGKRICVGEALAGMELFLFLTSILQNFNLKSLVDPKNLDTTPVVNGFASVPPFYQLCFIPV
T3 sequence (P33261 whole entry, canonical isoform): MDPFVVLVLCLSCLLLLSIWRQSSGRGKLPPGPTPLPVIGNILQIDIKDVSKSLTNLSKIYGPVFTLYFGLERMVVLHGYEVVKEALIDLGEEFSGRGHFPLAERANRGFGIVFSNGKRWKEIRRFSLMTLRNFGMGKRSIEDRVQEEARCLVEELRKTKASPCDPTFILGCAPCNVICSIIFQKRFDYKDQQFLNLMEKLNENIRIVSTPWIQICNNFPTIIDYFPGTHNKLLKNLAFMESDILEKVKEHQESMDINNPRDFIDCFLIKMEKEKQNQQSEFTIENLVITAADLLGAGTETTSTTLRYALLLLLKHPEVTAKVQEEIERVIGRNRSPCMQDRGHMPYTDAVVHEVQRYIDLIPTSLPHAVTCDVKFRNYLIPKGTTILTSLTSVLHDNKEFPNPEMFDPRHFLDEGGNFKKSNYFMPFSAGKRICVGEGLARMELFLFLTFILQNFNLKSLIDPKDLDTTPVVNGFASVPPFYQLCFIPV
T2 sequence (P08684 whole entry, canonical isoform): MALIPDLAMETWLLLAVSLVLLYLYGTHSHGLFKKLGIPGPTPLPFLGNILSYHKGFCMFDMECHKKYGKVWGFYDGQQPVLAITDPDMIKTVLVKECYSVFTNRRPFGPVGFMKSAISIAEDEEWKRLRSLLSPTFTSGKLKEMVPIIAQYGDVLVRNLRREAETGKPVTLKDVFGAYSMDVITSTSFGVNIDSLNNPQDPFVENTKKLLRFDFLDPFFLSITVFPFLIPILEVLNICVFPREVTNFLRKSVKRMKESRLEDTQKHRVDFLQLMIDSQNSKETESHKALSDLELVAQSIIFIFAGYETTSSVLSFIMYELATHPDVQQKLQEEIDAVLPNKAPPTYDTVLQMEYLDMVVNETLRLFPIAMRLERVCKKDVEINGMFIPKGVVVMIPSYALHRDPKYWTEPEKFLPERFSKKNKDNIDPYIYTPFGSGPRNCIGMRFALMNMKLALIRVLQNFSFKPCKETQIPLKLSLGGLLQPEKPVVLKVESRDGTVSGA

In the case of `Cc1nccn1Cc1ccc(-c2cc(CC(C)C)sc2S(=O)(=O)NC(=O)NCCO)cc1F` [Example 1, 1-[[3-[3-Fluoro-4-[(2-methylimidazol-1-yl)methyl]phenyl]-5-isobutyl-2-thienyl]sulfonyl]-3-(2-hydroxyethyl)urea], the inhibition at 10 µM on CYP2B6 came out at 6.2%; at CYP3A4 it was 7.2%; on CYP2C19, 6.5%; on CYP2D6, 5.3%; on CYP2C9 it was 5.5%; with CYP3A4&5, 12.4%. Besides, the inhibition at 10 µM was 35.2% on CYP2C8 and -26.3% on CYP1A. In addition, in [1], the “T1/2, + NaDPH” value is above 1 h. Moreover, in [1], the half-life at 1 uM was above 1 h. Further, the half-maximal inhibitory concentration (IC50) (commonly the concentration that inhibits the measured activity by half) amounted to 24000 nM in series [2] and 5 nM in series [3].
Consider `Cc1nccn1Cc1ccc(-c2cc(CC(C)C)sc2S(=O)(=O)NC(=O)NCCCO)cc1F` [Example 2, 1-[[3-[3-Fluoro-4-[(2-methylimidazol-1-yl)methyl]phenyl]-5-isobutyl-2-thienyl]sulfonyl]-3-(3-hydroxypropyl)urea], for which the inhibition at 10 µM was 3.1% at CYP2B6; 25.3% on CYP3A4; 26.3% on CYP2C19; 13.6% on CYP2D6; 16.5% on CYP2C9; 18.4% with CYP3A4&5. Moreover, the values for the inhibition at 10 µM at CYP2C8 and on CYP1A were 30.9% and -0.9%, respectively. The “T1/2, + NaDPH” value in [1] was above 1 h. Moreover, in series [1], the half-life at 1 uM was above 1 h. Further, the half-inhibitory concentration (IC50) was determined as 21000 nM in series [2] and 20 nM in [3].
Take `Cc1nccn1Cc1ccc(-c2cc(CC(C)C)sc2S(=O)(=O)NC(=O)NCC(C)(C)O)cc1F` [Example 3, 1-[[3-[3-Fluoro-4-[(2-methylimidazol-1-yl)methyl]phenyl]-5-isobutyl-2-thienyl]sulfonyl]-3-(2-hydroxy-2-methyl-propyl)urea]: the inhibition at 10 µM at CYP2B6 worked out at 22.6%; at CYP3A4, 52.8%; at CYP2C19 it was 21.2%; at CYP2D6 it was 38%; on CYP2C9, 31.8%; with CYP3A4&5, 29.7%. Further, the inhibition at 10 µM at CYP2C8 is 28%; on CYP1A, 15.5%. For the same compound, the “T1/2, + NaDPH” value in series [1] is above 1 h. In addition, the half-life at 1 uM in [1] was above 1 h. Besides, the IC50 in series [2] came to 23000 nM; in [3], 5.4 nM.
On to `Cc1nccn1Cc1ccc(-c2cc(CC(C)C)sc2S(=O)(=O)NC(=O)NCCO)c(F)c1` [Example 4, 1-[[3-[2-Fluoro-4-[(2-methylimidazol-1-yl)methyl]phenyl]-5-isobutyl-2-thienyl]sulfonyl]-3-(2-hydroxyethyl)urea], for which the inhibition at 10 µM at CYP2B6 was 3.2%; at CYP3A4, 24.5%; at CYP2C19, 29.6%; at CYP2D6, 7.6%; on CYP2C9, 11.9%; in the series with CYP3A4&5, 18.9%. Besides, the inhibition at 10 µM at CYP2C8 is 10.4%; on CYP1A, -9.7%. The IC50 is 34000 nM in series [2] and 45.5 nM in series [3].
On to `Cc1nccn1Cc1c(F)cc(-c2cc(CC(C)C)sc2S(=O)(=O)NC(=O)NCCO)cc1F` [Example 5, 1-[[3-[3,5-Difluoro-4-[(2-methylimidazol-1-yl)methyl]phenyl]-5-isobutyl-2-thienyl]sulfonyl]-3-(2-hydroxyethyl)urea], for which the inhibition at 10 µM on CYP2B6 was 27.4%; on CYP3A4, 44.6%; at CYP2C19 it was -30.1%; at CYP2D6 it was 36.3%; at CYP2C9 it was 38%; with CYP3A4&5 it was 27.5%. Also, the inhibition at 10 µM at CYP2C8 worked out at 36.2%; on CYP1A it was 8%. Further, the “T1/2, + NaDPH” value in series [1] is above 1 h. In series [1], the half-life at 1 uM is above 1 h. The IC50 in series [2] came out at 49000 nM; in [3], 18.4 nM.
Consider `CC(C)Cc1cc(-c2ccc(Cn3ccnc3C(C)(C)C)c(F)c2)c(S(=O)(=O)NC(=O)NCCO)s1` [Example 6, 1-[[3-[4-[(2-tert-Butylimidazol-1-yl)methyl]-3-fluoro-phenyl]-5-isobutyl-2-thienyl]sulfonyl]-3-(2-hydroxyethyl)urea], for which the inhibition at 10 µM on CYP2B6 was found to be 8.2%; at CYP3A4 it was 13%; on CYP2C19, 14.7%; on CYP2D6 it was 10.1%; at CYP2C9, 11.5%; with CYP3A4&5, 4.5%. Moreover, the inhibition at 10 µM came out at 73.8% at CYP2C8 and 3.5% at CYP1A. The “T1/2, + NaDPH” value in [1] was above 1 h. Also, the half-life at 1 uM in series [1] was above 1 h. For the same compound, the results for the IC50 in [2] and in series [3] were 2100 nM and 0.64 nM, respectively.
In the case of `CC(C)Cc1cc(-c2ccc(Cn3ccnc3C(C)C)c(F)c2)c(S(=O)(=O)NC(=O)NCCO)s1` [Example 10, 1-[[3-[3-Fluoro-4-[(2-isopropylimidazol-1-yl)methyl]phenyl]-5-isobutyl-2-thienyl]sulfonyl]-3-(2-hydroxyethyl)urea], in series [1], the “T1/2, + NaDPH” value is above 1 h and the half-life at 1 uM is above 1 h. In series [2], the IC50 stood at 8400 nM. In addition, the Ki (commonly the equilibrium dissociation constant of an inhibitor or competing ligand from its target) in series [3] (seven-point dose-response curve, read-out: AT2R Ki) worked out at 0.95 nM. The half-inhibitory concentration (IC50) in series [3] worked out at 1.9 nM.

The values above are taken from patent publication US20240174657A1, “SELECTIVE ANGIOTENSIN II RECEPTOR LIGANDS” (priority 2021, published 2024).
